Test results from patent publication US20120122822A1, “COMPOSITIONS FOR REDUCING BETA-AMYLOID-INDUCED NEUROTOXICITY COMPRISING BETA-SECRETASE INHIBITOR” (Phloronol, Inc., priority 2010, published 2012).
Like-named read-outs stand apart in the source and are kept apart here.

Key:
[1] = tested on: beta amyloid (Aβ) production in N2a/APP cells; assay: Inhibition of beta amyloid Aβ(1-42) production in nerve cells, immunoassay; format: cell-based; details: read-out: Aβ Inhibition Rate (%)
Experimental: N2a/APP cells, used as a study model for neurodegenerative diseases (Wang X C, Zhang Y C, Chatterjie N, Grundke-Iqbal I, Iqbal K, Wang J Z. Neurochem Res (2008) 33:1138-1144), were employed to analyze the inhibition of beta amyloid (Aβ) production in nerve cells. N2a/APP cells were fixed onto 24-well plates (5×10^4 cells/well) containing a medium devoid of hygromycin B. The ingredients listed in Table 5 were added at a final concentration of 10 μg/mL to each well and incubated for 48 hrs. Secreted Aβ(1-42) was quantitatively analyzed with an Aβ(1-42) immunoassay kit (Biosource, Camarillo, Calif., USA). In this regard, the medium in each well was transferred into 96-well plates coated with an Aβ(1-42) antibody and then treated with a detection antibody. For this, after incubation at room temperature for 3 hrs, the medium was treated with HRP (horseradish peroxidase), an anti-rabbit antibody and stabilized chromogen to allow an antigen-antibody reaction. This reaction was terminated with a stop buffer before absorbance was read at 450 nm. For a negative control, no samples were added to the medium. Inhibitory effects on beta amyloid production were calculated according to the following equation and the results are summarized in Table 5, below.
Aβ Inhibition (%)=(C−S)/C×100
(§1) where C is the absorbance of a negative control and S is the absorbance of each sample.

N2a/APP cells = assay: Reduction of neurotoxicity, MTT cell viability assay; format: cell-based; details: 10 μg/mL, 12 hrs
Experimental: For this, N2a/APP cells were subjected to an MTT assay, which is a measure of mitochondrial activity that converts 3-(4,5-dimethyl-thiazol-2-yl)-2,5-diphenyl-tetrazolium bromide (MTT) to formazan in living cells. N2a/APP cells were seeded at a density of 1×10^4 cells/well into 96-well plates, incubated for 24 hrs, and left for 12 hrs in serum-free DMEM-Opti-MEM. Thereafter, the samples listed in Table 5 were added at a final concentration of 10 μg/mL to each well (medium free of any of the samples was used for a negative control) and then incubated for 12 hrs. To each well was added approx. 10 μL of MTT (5 mg/ml in phosphate buffered saline (PBS) solution), followed by incubation at 37° C. for 4 hrs. Each well was measured for absorbance at 570 nm. Inhibitory activity against neurotoxicity was assessed by an increase rate of cell viability as calculated by the following equation.
Increase Rate of Cell Viability (%)=(S−C)/C×100
as §1

human recombinant BACE1 = target: T1, human recombinant BACE1 (Homo sapiens, UniProt P56817); assay: β-secretase inhibition, human recombinant BACE1 assay kit (PanVera), fluorescence; format: biochemical; details: for inhibition at 0.01 µM: read-out: BACE Inhibition at 10 nM; for IC50: β-secretase (BACE)
T1 construct: purchased PanVera, Wis., USA
T1 sequence (P56817 46-501): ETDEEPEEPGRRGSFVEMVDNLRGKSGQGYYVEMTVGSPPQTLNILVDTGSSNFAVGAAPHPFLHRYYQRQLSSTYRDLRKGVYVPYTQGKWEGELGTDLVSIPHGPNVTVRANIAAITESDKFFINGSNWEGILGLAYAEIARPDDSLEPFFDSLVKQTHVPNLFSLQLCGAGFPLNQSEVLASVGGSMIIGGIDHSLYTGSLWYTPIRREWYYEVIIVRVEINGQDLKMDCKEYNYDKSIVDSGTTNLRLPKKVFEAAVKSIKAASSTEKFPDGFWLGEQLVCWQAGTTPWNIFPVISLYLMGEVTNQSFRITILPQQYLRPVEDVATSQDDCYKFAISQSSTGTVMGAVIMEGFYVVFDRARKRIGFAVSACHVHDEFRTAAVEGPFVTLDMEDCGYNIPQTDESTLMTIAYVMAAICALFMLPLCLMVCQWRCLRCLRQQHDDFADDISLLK
Experimental: The primary 1,3,5-trihydroxybenzene polymer products obtained under the various conditions were assayed for inhibitory activity against β-secretase. For this purpose, a human recombinant BACE1 assay kit (PanVera, Wis., USA) was used according to the manufacturer's instructions.
For a negative control, an assay buffer containing none of the samples was used instead of the sample solution. In the absence of light, each reaction mixture was allowed to react at 25° C. for 60 min. Thereafter, while a light beam at 528 nm was applied to the reaction mixture, fluorescent light at 620 nm was detected with Bio-Tek Microplate fluorescence reader FLx 800 (VT, USA). Inhibition activity was calculated according to the following formula:
Inhibition (%)=[1−{(S−S0)/(C−C0)}]×100
C is a fluorescent intensity after reaction of the negative control for 60 min,
C0 is an initial fluorescent intensity of the negative control,
S is a fluorescent intensity after reaction of each sample for 60 min, and
S0 is an initial fluorescent intensity of each sample.

[2] = N2a/APP cells, 10 μg/mL, 48 hrs, secreted Aβ(1-42)

Structure (SMILES) | inhibition at 0.01 µM (human recombinant BACE1) | IC50 (human recombinant BACE1) | inhibition at 10 µg/mL ([1]; 48 h) | Increase Rate of Cell Viability (%) (N2a/APP cells) | inhibition at 10 µg/mL [1, 2]
C[C@H](NC(=O)Cc1cc(F)cc(F)c1)C(=O)N[C@H]1N=C(c2ccccc2)c2ccccc2N(C)C1=O [C. Ex. 3, (S)-2-[2-(3,5-Difluoro-phenyl)-acetylamino]-N-((S)-1-methyl-2-oxo-5-phenyl-2,3-dihydro-1H-benzo[e][1,4]diazepin-3-yl)-propionamide] | – | – | 22% | −5% | –
CC(C)Cc1ccc(C(C)C(=O)O)cc1 (centres unmarked) [C. Ex. 4, ibuprofen] | – | – | – | 2% | 17%
O=c1c(O)c(-c2ccc(O)c(O)c2)oc2cc(O)cc(O)c12 [C. Ex. 6, quercetin] | – | – | 17% | 12% | –
Cc1ccc(-c2cc(C(F)(F)F)nn2-c2ccc(S(N)(=O)=O)cc2)cc1 [C. Ex. 5, celecoxib] | – | – | – | 15% | 19%
Oc1ccc(C=Cc2cc(O)cc(O)c2)cc1 [C. Ex. 7, resveratrol] | – | – | 13% | 10% | –
C[C@H](NC(=O)Cc1cc(F)cc(F)c1)C(=O)N[C@@H]1C(=O)N(C)c2ccccc2-c2ccccc21 [C. Ex. 2, (S)-2-[2-(3,5-Difluoro-phenyl)-acetylamino]-N-((S)-5-methyl-6-oxo-6,7-dihydro-5H-dibenzo[b,d]azepin-7-yl)-propionamide] | – | – | – | 5% | 21%

More lines, main results first:

inhibition at 0.01 µM (human recombinant BACE1) | IC50 (human recombinant BACE1) | Structure (SMILES) | inhibition at 10 µg/mL ([1]; 48 h) | Increase Rate of Cell Viability (%) (N2a/APP cells) | inhibition at 10 µg/mL [1, 2]
53% | 5.8 nM | Oc1cc(O)c2c(c1)Oc1c(O)cc3oc4cc(O)cc(O)c4c3c1O2 [Chemical Formula 3-1] | – | – | –
87% | 1.7 nM | Oc1cc(O)cc(Oc2c(O)cc(O)c3c2oc2cc(O)c4c(c23)Oc2c(O)cc(O)cc2O4)c1 [Chemical Formula 3-2] | – | – | –
90% | 1.5 nM | Oc1cc(O)cc(Oc2c(O)cc(O)c3c2Oc2c(O)cc4oc5cc(O)cc(O)c5c4c2O3)c1 [Chemical Formula 3-4] | – | – | –
77% | 3.6 nM | Oc1cc(O)cc(Oc2c(O)cc(O)c3c2oc2cc4c(c(O)c23)Oc2cc(O)cc(O)c2O4)c1 [Chemical Formula 4-2] | – | – | –
94% | 1.3 nM | Oc1cc(O)cc(Oc2c(O)cc3c(c2O)Oc2c(c(O)cc4oc5c(Oc6cc(O)cc(O)c6)c(O)cc(O)c5c24)O3)c1 [Chemical Formula 3-6] | – | 22% | 30%
65% | 4.7 nM | Oc1cc(O)c2c(c1)Oc1c(cc3oc4cc(O)cc(O)c4c3c1O)O2 [Chemical Formula 4-1] | – | – | –
70% | 4 nM | Oc1cc(O)cc(Oc2c(O)cc(O)c3c2Oc2c(cc4oc5cc(O)cc(O)c5c4c2O)O3)c1 [Chemical Formula 4-3] | – | – | –
86% | 2.4 nM | Oc1cc(O)cc(Oc2c(O)cc(O)c3c2Oc2c(cc4oc5c(Oc6cc(O)cc(O)c6)c(O)cc(O)c5c4c2O)O3)c1 [Chemical Formula 4-4] | – | 21% | 27%
